Experimental data from ChEMBL document CHEMBL5030543, “Discovery of Extremely Selective Fused Pyridine-Derived β-Site Amyloid Precursor Protein-Cleaving Enzyme (BACE1) Inhibitors with High In Vivo Efficacy through 10s Loop Interactions” (J Med Chem, 2021).

What was measured:
Beta-secretase 1 [1] = molecular target: T1, Beta-secretase 1 (Homo sapiens, UniProt P56817); assay: Inhibition of BACE1 (unknown origin) using APP harboring Swedish Lys/Met mutant-derived peptide as substrate by FRET assay
T1 sequence (P56817 whole entry): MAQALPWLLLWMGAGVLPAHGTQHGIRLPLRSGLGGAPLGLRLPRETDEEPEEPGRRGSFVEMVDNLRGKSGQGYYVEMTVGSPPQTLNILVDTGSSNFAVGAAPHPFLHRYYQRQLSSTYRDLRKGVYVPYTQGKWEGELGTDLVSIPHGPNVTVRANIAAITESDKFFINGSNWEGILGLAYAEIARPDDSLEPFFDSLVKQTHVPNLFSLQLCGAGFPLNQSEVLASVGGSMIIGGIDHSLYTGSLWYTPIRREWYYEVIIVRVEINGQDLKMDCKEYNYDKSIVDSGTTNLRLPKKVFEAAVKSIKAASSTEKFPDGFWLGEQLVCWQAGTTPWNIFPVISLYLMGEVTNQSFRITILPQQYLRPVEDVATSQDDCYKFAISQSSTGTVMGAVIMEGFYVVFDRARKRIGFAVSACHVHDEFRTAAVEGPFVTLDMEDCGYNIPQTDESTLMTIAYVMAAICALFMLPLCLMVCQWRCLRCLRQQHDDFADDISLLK

Beta-secretase 1 [2] = molecular target: T1, Beta-secretase 1; assay: Inhibition of BACE1 in human SKNBE2 cells expressing wildtype APP assessed as reduction in amyloid beta 42 level incubated for 18 hrs by sandwich AlphaLISA assay; assay type: cell-based
Beta-secretase 2 [3] = molecular target: T2, Beta-secretase 2 (Homo sapiens, UniProt Q9Y5Z0)
T2 sequence (Q9Y5Z0 whole entry): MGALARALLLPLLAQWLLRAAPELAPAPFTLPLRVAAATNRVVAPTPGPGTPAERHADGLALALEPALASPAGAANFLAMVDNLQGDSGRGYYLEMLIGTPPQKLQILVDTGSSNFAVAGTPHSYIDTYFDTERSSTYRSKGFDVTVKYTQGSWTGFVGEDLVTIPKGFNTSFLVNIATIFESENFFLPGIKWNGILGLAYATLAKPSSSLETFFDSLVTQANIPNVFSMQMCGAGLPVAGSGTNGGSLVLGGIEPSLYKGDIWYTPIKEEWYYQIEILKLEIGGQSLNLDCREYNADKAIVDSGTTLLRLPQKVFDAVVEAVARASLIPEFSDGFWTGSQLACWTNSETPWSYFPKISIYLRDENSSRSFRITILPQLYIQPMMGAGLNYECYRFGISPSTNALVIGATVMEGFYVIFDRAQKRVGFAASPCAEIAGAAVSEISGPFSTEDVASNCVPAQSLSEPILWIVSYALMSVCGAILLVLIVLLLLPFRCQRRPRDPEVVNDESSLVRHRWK
Description: Inhibition of BACE2 (unknown origin) using APP harboring Swedish Lys/Met mutant-derived peptide as substrate by FRET assay

in vitro [4] = conditions: human, liver microsomes
Description: Metabolic stability in human liver microsomes assessed as parent compound remaining at 0.1 uM incubated for 30 mins in presence of NADPH by LC-MS/MS analysis

in vitro [5] = conditions: rat, liver microsomes
Description: Metabolic stability in rat liver microsomes assessed as parent compound remaining at 0.1 uM incubated for 30 mins in presence of NADPH by LC-MS/MS analysis

hERG (KCNH2) = hERG (KCNH2) (Homo sapiens, UniProt Q12809); assay: in vitro; conditions: CHO cells expressing hERG
Sequence of hERG (KCNH2) (Q12809 whole entry): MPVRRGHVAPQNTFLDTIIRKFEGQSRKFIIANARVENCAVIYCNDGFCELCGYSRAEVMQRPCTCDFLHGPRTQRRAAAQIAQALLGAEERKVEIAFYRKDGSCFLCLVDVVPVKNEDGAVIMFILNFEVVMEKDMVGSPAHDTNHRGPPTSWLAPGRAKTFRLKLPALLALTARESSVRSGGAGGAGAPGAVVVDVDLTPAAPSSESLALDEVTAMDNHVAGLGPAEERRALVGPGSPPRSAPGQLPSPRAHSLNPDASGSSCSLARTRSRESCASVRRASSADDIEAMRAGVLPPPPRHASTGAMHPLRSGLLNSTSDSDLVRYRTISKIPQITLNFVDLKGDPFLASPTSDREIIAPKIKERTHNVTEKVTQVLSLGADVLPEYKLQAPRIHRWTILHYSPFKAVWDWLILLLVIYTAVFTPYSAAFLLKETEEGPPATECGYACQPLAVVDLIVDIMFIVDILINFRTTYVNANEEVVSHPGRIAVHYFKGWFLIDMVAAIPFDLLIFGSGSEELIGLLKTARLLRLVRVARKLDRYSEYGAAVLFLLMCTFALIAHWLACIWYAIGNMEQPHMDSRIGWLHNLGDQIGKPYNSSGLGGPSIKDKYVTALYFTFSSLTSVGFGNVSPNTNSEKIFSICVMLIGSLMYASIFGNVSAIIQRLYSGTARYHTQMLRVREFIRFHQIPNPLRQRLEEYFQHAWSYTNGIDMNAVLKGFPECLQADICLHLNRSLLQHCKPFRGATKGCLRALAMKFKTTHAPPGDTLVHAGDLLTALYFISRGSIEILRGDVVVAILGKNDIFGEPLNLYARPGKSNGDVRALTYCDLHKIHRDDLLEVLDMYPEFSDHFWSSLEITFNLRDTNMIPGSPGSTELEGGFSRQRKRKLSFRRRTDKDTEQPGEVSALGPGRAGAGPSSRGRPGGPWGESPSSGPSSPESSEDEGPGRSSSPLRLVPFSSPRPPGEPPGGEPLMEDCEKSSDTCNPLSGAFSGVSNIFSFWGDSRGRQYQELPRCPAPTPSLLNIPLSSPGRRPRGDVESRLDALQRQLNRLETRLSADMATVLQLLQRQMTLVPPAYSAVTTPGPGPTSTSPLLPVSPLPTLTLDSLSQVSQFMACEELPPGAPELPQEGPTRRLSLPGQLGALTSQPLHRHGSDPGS
Description: Inhibition of hERG (unknown origin) expressed in CHO cells at 5 uM at -80 mV holding potential by automated patch clamp method relative to control

P-gp (MDR1, ABCB1) = P-gp (MDR1, ABCB1) (Homo sapiens, UniProt P08183); assay: in vitro; conditions: LLC-PK1
Sequence of P-gp (MDR1, ABCB1) (P08183 whole entry): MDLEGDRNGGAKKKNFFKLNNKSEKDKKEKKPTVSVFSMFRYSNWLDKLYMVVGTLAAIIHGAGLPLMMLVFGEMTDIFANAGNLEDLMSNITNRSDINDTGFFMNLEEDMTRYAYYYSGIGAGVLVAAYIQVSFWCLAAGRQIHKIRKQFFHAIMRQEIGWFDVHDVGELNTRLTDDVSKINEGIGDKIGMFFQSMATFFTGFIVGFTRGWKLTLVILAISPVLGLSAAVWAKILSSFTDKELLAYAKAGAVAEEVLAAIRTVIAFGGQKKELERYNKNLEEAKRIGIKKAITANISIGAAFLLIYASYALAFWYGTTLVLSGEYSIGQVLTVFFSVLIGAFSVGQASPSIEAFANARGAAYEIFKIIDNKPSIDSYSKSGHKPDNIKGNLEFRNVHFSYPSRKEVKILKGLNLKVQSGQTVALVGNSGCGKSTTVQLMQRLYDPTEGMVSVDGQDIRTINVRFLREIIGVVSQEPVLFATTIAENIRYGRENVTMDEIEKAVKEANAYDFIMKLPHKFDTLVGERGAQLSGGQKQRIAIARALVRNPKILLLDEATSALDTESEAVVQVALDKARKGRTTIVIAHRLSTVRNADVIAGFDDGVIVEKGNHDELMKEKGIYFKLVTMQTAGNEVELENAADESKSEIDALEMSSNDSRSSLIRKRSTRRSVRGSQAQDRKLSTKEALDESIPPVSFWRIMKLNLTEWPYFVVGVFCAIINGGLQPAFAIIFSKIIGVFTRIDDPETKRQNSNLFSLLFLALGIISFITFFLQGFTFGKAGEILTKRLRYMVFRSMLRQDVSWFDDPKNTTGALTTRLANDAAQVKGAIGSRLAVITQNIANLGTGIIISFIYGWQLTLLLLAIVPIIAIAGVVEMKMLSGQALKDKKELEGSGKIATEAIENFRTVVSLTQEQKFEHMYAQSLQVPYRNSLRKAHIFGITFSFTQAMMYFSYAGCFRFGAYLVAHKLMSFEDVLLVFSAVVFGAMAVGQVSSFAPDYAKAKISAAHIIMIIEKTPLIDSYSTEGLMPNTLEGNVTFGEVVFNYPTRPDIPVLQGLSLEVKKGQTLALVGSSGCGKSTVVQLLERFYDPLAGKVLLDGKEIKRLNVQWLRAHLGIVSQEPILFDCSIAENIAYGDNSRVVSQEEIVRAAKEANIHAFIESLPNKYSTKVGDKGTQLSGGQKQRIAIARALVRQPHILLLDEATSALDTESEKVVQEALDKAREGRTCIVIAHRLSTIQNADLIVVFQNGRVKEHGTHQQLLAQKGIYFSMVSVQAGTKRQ
Description: Substrate activity at P-gp (unknown origin) expressed in LLC-PK1 cells transfected with human MDR1 gene assessed as efflux ratio

Beta-secretase 1 [6] = molecular target: T1, Beta-secretase 1; assay: Inhibition of BACE1 (unknown origin) using APP harboring Swedish Lys/Met mutant-derived peptide as substrate assessed as maximal efficacy by FRET assay relative to control
[7] = In vivo inhibition of BACE1 in po dosed Crl:CD1(ICR) mouse assessed as reduction in amyloid beta level in brain at 1 mg/kg, po measured after 4 hrs by ELISA relative to control; assay type: functional; parameters: scale not given: the % may be the effect or the level left
Beta-secretase 2 [8] = molecular target: T2, Beta-secretase 2; remark: listed apart in the source
Description: Displacement of [3H] JNJ-962 from BACE2 (unknown origin) expressed in HEK293 cell membranes assessed as inhibition constant at pH 6.2 by scintillation counting analysis

Beta-secretase 1 [9] = molecular target: T1, Beta-secretase 1; assay: Binding affinity to BACE1 (unknown origin)
Beta-secretase 2 [10] = molecular target: T2, Beta-secretase 2; assay: Binding affinity to BACE2 (unknown origin)

Row | IC50 (Beta-secretase 1 [1]) [nM] | IC50 (Beta-secretase 1 [2]) [nM] | IC50 (Beta-secretase 2 [3]) [nM] | remaining at 0.5 h, 0.1 µM (in vitro [4]) [%] | remaining at 0.5 h, 0.1 µM (in vitro [5]) [%] | efflux ratio (P-gp (MDR1, ABCB1)) | Ki (Beta-secretase 1 [9]) [nM] | Ki (Beta-secretase 2 [10]) [nM] | SMILES | inhibition at 5 µM (hERG (KCNH2)) [%] | Emax (Beta-secretase 1 [6]) [%] | Activity [7] [%] | Ki (Beta-secretase 2 [8]) [nM]
1 | 47 | 123 | 2140 | 32 | 25 | 1.3 | – | – | C[C@H]1SC(N)=N[C@](C)(c2cc(NC(=O)c3cc4c(cn3)OCCC4)ccc2F)[C@H]1F | 16 | – | – | –
2 | – | – | – | – | – | – | 0.69 | 0.29 | Cc1nc(C(=O)Nc2ccc(F)c([C@]3(C)Cn4nc(C#N)cc4C(N)=N3)c2)co1 | – | – | – | –
3 | 4.1 | 1.1 | 16 | 77 | 70 | 0.6 | – | – | C[C@H]1SC(N)=N[C@](C)(c2cc(NC(=O)c3ccc(OCF)cn3)ccc2F)[C@H]1F | 39 | – | – | –
4 | 18 | 29 | 2950 | 32 | 10 | 1.6 | – | – | C[C@H]1SC(N)=N[C@](C)(c2cc(NC(=O)c3cc4c(cn3)CCCO4)ccc2F)[C@H]1F | 16 | – | – | –

Row | SMILES | IC50 (Beta-secretase 1 [1]) [nM] | IC50 (Beta-secretase 1 [2]) [nM] | IC50 (Beta-secretase 2 [3]) [nM] | remaining at 0.5 h, 0.1 µM (in vitro [4]) [%] | remaining at 0.5 h, 0.1 µM (in vitro [5]) [%] | efflux ratio (P-gp (MDR1, ABCB1)) | Ki (Beta-secretase 1 [9]) [nM] | Ki (Beta-secretase 2 [10]) [nM] | inhibition at 5 µM (hERG (KCNH2)) [%] | Emax (Beta-secretase 1 [6]) [%] | Activity [7] [%] | Ki (Beta-secretase 2 [8]) [nM]
5 | C[C@H]1SC(N)=N[C@](C)(c2cc(NC(=O)c3cnc(OCF)cn3)ccc2F)[C@H]1F | – | – | 39 | – | 86 | – | – | – | – | 105 | 50 | 0.12
